Results from article PMC2606880 (Diabetes, 2009).
Where two headings read alike, the source gives them in different places.

Experiments:
[1] = cited from earlier work
type 2 diabetic patients = settings: 4 weeks of treatment; cited from earlier work
conscious dogs [2] = assay: Plasma pancreatic hormone levels; format: in vivo, dog; settings: vildagliptin-treated group
conscious dogs [3] = assay: Tolerability of oral vildagliptin; format: in vivo, dog; settings: vildagliptin 1 mg/kg by stomach gavage; all animals
conscious dogs [4] = format: in vivo, dog; settings: for Net hepatic alanine uptake / Net hepatic glycerol uptake / Plasma free fatty acid level: vildagliptin 1 mg/kg oral, mean ± SE, n = 6
conscious dogs [5] = format: in vivo, dog; settings: vildagliptin-treated group
[6] = basal period, mean ± SEM, n = 6

For `CC[C@H](C)[C@H](NC(=O)[C@H](Cc1ccccc1)NC(=O)[C@H](CCC(=O)O)NC(=O)[C@H](CCCCN)NC(=O)[C@H](C)NC(=O)[C@H](C)NC(=O)[C@H](CCC(N)=O)NC(=O)CNC(=O)[C@H](CCC(=O)O)NC(=O)[C@H](CC(C)C)NC(=O)[C@H](Cc1ccc(O)cc1)NC(=O)[C@H](CO)NC(=O)[C@H](CO)NC(=O)[C@@H](NC(=O)[C@H](CC(=O)O)NC(=O)[C@H](CO)NC(=O)[C@@H](NC(=O)[C@H](Cc1ccccc1)NC(=O)[C@@H](NC(=O)CNC(=O)[C@H](CCC(=O)O)NC(=O)[C@H](C)NC(=O)[C@@H](N)Cc1c[nH]cn1)[C@@H](C)O)[C@@H](C)O)C(C)C)C(=O)N[C@@H](C)C(=O)N[C@@H](Cc1c[nH]c2ccccc12)C(=O)N[C@@H](CC(C)C)C(=O)N[C@H](C(=O)N[C@@H](CCCCN)C(=O)NCC(=O)N[C@@H](CCCNC(=N)N)C(N)=O)C(C)C` [GLP-1, Glucagon-like peptide 1], the “share of the kidneys in the degradation of intact GLP-1” value [1] is listed as 10–20% and the clearance (dog, in vivo, iv) is listed as 2.28 ± 0.3 L/h/kg.
In the case of `N#C[C@@H]1CCCN1C(=O)CNC12CC3CC(CC(O)(C3)C1)C2` [Vildagliptin], the “increase in the rise in active GLP-1 after meals” value (type 2 diabetic patients) is given as “twofold or greater increase”, the “increase of arterial plasma C-peptide” value (conscious dogs [2]; basal period to last 3 h) is given as 3.6 fold and the “Hepatic sinusoidal plasma glucagon level” value (conscious dogs [2]; [6]) is given as 43 ± 3 pg/mL. For the same compound, the “arterial plasma C-peptide level” value (conscious dogs [2]; [6]) was 0.39 ± 0.04 ng/mL, the arterial plasma insulin (conscious dogs [2]; [6]) was 6 ± 1 μU/ml and the “hepatic sinusoidal plasma insulin” value (conscious dogs [2]; [6]) was 17 ± 3 μU/ml. For the same compound, the “Hepatic sinusoidal plasma glucagon level” value (conscious dogs [2]; experimental period, mean ± SEM, n = 6) was 23 ± 4 pg/mL, the “increase of arterial plasma insulin from basal period to last 3 h” value (conscious dogs [2]) was 5.5 fold and the “increase of hepatic sinusoidal plasma insulin from basal period to last 3 h” value (conscious dogs [2]) was 5.4 fold. The “average hepatic insulin level greater than in the control group” value (conscious dogs [2]; not statistically significant) was 15 μU/ml, the tolerability (conscious dogs [3]) was “well tolerated” and the “Free fatty acid and glycerol levels lower than in control” value (conscious dogs [4]; basal period, vildagliptin-treated group) was roughly 25%. For the same compound, the “Net hepatic alanine uptake” value (conscious dogs [4]; experimental period 60 min) was 1.8 ± 0.2 µmol/kg/min, the “Net hepatic glycerol uptake” value (conscious dogs [4]; experimental period 60 min) was 0.5 ± 0.2 µmol/kg/min and the “Plasma free fatty acid level” value (conscious dogs [4]; experimental period 60 min) was 111 ± 23 µmol/L. The “Net hepatic alanine uptake” value (conscious dogs [4]; experimental period 120 min) was 2.0 ± 0.5 µmol/kg/min, the “Net hepatic glycerol uptake” value (conscious dogs [4]; experimental period 120 min) was 0.5 ± 0.1 µmol/kg/min and the “Plasma free fatty acid level” value (conscious dogs [4]; experimental period 120 min) was 88 ± 26 µmol/L. For the same compound, the “Net hepatic alanine uptake” value (conscious dogs [4]; experimental period 180 min) was 2.2 ± 0.2 µmol/kg/min, the “Net hepatic glycerol uptake” value (conscious dogs [4]; experimental period 180 min) was 0.4 ± 0.2 µmol/kg/min and the “Plasma free fatty acid level” value (conscious dogs [4]; experimental period 180 min) was 71 ± 25 µmol/L. For the same compound, the “Net hepatic alanine uptake” value (conscious dogs [4]; experimental period 210 min) was 2.4 ± 0.2 µmol/kg/min, the “Net hepatic glycerol uptake” value (conscious dogs [4]; experimental period 210 min) was 0.5 ± 0.2 µmol/kg/min and the “Plasma free fatty acid level” value (conscious dogs [4]; experimental period 210 min) was 82 ± 31 µmol/L. For the same compound, the “Net hepatic alanine uptake” value (conscious dogs [4]; experimental period 240 min) was 2.5 ± 0.3 µmol/kg/min, the “Net hepatic glycerol uptake” value (conscious dogs [4]; experimental period 240 min) was 0.3 ± 0.1 µmol/kg/min and the “Plasma free fatty acid level” value (conscious dogs [4]; experimental period 240 min) was 66 ± 15 µmol/L. The “increase of nonhepatic glucose uptake from basal” value (conscious dogs [5]; basal period to last 3 h, not significant vs control) was 8.1 ± 1.4 mg/kg/min, the “Nonhepatic glucose uptake (non-HGU)” value (conscious dogs [5]; [6]) was 2.3 ± 0.3 mg/kg/min and the “net hepatic glucose balance (positive = output)” value (conscious dogs [5]; [6]) was 2.1 ± 0.2 mg/kg/min. The “Nonhepatic glucose uptake (non-HGU)” value (conscious dogs [5]; last 3 h, mean ± SEM, n = 6) was 10.4 ± 1.4 mg/kg/min, the “net hepatic glucose fractional extraction” value (conscious dogs [5]; last 3 h, mean ± SEM, n = 6, P < 0.05) was 0.06 ± 0.01 and the “increase in arterial and portal vein GLP-1 concentrations” value (vildagliptin 1 mg/kg oral vs control) was 70%.
